Structures can show the parent of a compound that is named as a salt.
Biological target: T1, Human renin (Homo sapiens, UniProt P00797)
T1 construct: thus to obtain 1.5 mg of a purified product of active type renin (67-406); made in house; host or cells: FreeStyle 293-F cells (transient expression of pcDNA3.1(+)/hREN)
T1 sequence (P00797 67-406): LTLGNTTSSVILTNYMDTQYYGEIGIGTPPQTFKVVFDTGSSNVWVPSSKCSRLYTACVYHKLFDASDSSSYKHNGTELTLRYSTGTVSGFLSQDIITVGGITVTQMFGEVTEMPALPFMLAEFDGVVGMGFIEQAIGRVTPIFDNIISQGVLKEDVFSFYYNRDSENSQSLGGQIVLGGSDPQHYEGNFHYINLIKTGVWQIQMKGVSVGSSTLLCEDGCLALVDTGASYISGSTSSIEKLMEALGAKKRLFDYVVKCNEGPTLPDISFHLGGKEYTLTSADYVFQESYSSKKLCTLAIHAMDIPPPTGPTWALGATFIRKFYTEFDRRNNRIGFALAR
Experiment: Measurement of renin inhibition value A (FITC-labelled substrate peptide, capillary electrophoresis)
Assay type: biochemical
Details: test compound 1 μM, renin 4.7 nM, pH 6.0, 37° C., 30 min, read-out: inhibitory activity (%) at 1 μM
Method: Human renin was obtained by expressing preprorenin (1-406) in an animal cell, treating the prorenin (24-406) contained in the culture supernatant with trypsin, and taking the active type (67-406).
To 3.6 mg of prorenin (24-406) dissolved in 5.2 ml of 0.1 M Tris-hydrochloric acid (pH 8.0), 12 μg of trypsin (Roche Diagnostics Corp.) was added, and the mixture was allowed to react at 28° C. for 55 min to carry out activation of renin. After the reaction, 0.4 ml of immobilized trypsin inhibitor (Pierce Biotechnology, Inc.) was added to remove the trypsin used in the activation by adsorption. The reaction liquid containing the active type renin was concentrated using Vivaspin 20 (molecular weight cut off 10,000, Vivascience, Inc.), and was diluted with 20 mM Tris-hydrochloric acid (pH 8.0). The diluted liquid was fed to a TSKgel DEAE-5PW column (7.5 mm I.D.×75 mm, Tosoh Corp.) equilibrated with 20 mM Tris-hydrochloric acid (pH 8.0) at a flow rate of 1 ml/min to adsorb the active type renin (67-406). The column was washed with the buffer solution used for the equilibration, and then elution was carried out by means of a sodium chloride linear concentration gradient from 0 M to 0.3 M, thus to obtain 1.5 mg of a purified product of active type renin (67-406).
As a substrate for renin activity measurement, a substrate peptide (FITC-Acp-Asp-Arg-Val-Tyr-Ile-His-Pro-Phe-His-Leu-Val-Ile-His-Gln-Arg-NH2; SEQ ID No.8) wherein the N-terminal of a peptide prepared in reference to a partial sequence (Asp-Arg-Val-Tyr-Ile-His-Pro-Phe-His-Leu-Val-Ile-His-Asn-Glu-NH2; SEQ ID No.7) of human angiotensinogen was bound with epsilon aminocaproic acid (Acp) as a linker and labeled with a fluorescence reagent Fluorescein isothiocyanate (FITC). 2 μl each of the test compound (containing 100% DMSO) was added to each well of a 384-well black plate (Nalge Nunc International Co., Ltd.). Renin was diluted with a buffer solution for reaction (20 mM citric acid-sodium citrate (pH 6.0)) to a concentration of 4.7 nM, and 30 μl each of the dilution was added to each well. The dilution was left to stand at 37° C. for 10 min, and then 8 μl of each of a 25 μM solution of substrate peptide was added to each well to initiate the reaction. The reaction mixture was left to stand at 37° C. for 30 min, and then 40 μl each of a reaction terminating solution [200 mM Tris-hydrochloric acid (pH 8.0), 0.04% Triton-X 100, 0.4% Coating 3 reagent (Caliper Life Sciences Corp.) and 1 μM CGP-29287 (Bachem Holding AG)] was added to each well to terminate the reaction.
The substrate peptide and the product peptide were separated by a microchip type capillary electrophoresis system 250HTS (Caliper Life Sciences Co., Ltd.), and the rate of reaction [(peak height of product)/(peak height of product+peak height of substrate)×100(%)] was calculated from the ratio of the respective peak height of the peptides obtained by fluorimetric detection (excitation wavelength 457 nm, measurement wavelength 530 nm), and was used as an index of the renin activity.
While the reaction rate of the well where 100% DMSO only was added was taken as 0% inhibition rate, and the reaction rate of the well where 10 μM of CGP-29287 was added was taken as 100% inhibition rate, the renin inhibitory activity of the wells where the test compound (containing 100% DMSO) was added was calculated.

inhibition at 1 µM | Compound
96% | O=C(c1ncn([C@H]2CCCC[C@H]2O)c1-c1ccccc1)N1CCNC[C@H]1Cc1cc(F)cc(F)c1 [Example 1, (1R,2S)-2-(4-{[(2R)-2-(3,5-Difluorobenzyl)piperazin-1-yl]carbonyl}-5-phenyl-1H-imidazol-1-yl)cyclohexanol hydrochloride]
99% | O=C(c1ncn(CC2(O)CCCCC2)c1-c1ccccc1)N1CCNC[C@H]1Cc1ccccc1 [Example 4, 1-[(4-{[(2R)-2-Benzylpiperazin-1-yl]carbonyl}-5-phenyl-1H-imidazol-1-yl)methyl]cyclohexanol]
98% | COC(=O)N[C@H]1CCCC[C@@H]1n1cnc(C(=O)N2CCNC[C@H]2Cc2ccccc2)c1-c1ccccc1 [Example 6, Methyl [(1S,2S)-2-(4-{[(2R)-2-benzylpiperazin-1-yl]carbonyl}-5-phenyl-1H-imidazol-1-yl)cyclohexyl]carbamate]
100% | O=C(c1ncn(C2CCCCC[C@@H]2O)c1-c1ccccc1)N1CCNC[C@H]1Cc1ccccc1 (stereo partly drawn) [Example 7, trans-2-(4-{[(2R)-2-Benzylpiperazin-1-yl]carbonyl}-5-phenyl-1H-imidazol-1-yl)cycloheptanol]
96% | COC[C@]1(O)CCCC[C@H]1n1cnc(C(=O)N2CCNC[C@H]2CCOc2ccc(C(=O)OC)cc2)c1-c1ccccc1 [Example 15, Methyl 4-{2-[(2R)-1-({1-[(1R,2S)-2-hydroxy-2-(methoxymethyl)cyclohexyl]-5-phenyl-1H-imidazol-4-yl}carbonyl)piperazin-2-yl]ethoxy}benzoate]
101% | O=C(c1ncn(C2CCCCC2)c1-c1ccccc1)N1CCNC[C@H]1Cc1ccccc1 [Example 349, (2R)-2-Benzyl-1-[(1-cyclohexyl-5-phenyl-1H-imidazol-4-yl)carbonyl]piperazine]
101% | O=C(c1ncn([C@H]2CCCC[C@H]2O)c1-c1ccccc1)N1CCNC[C@H]1Cc1ccccc1 [Example 352, (1R,2S)-2-(4-{[(2R)-2-Benzylpiperazin-1-yl]carbonyl}-5-phenyl-1H-imidazol-1-yl)cyclohexanol]
100% | CCOC(=O)N[C@H]1CCCC[C@@H]1n1cnc(C(=O)N2CCNC[C@H]2Cc2ccccc2)c1-c1ccccc1 [Example 357, Ethyl [(1S,2S)-2-(4-{[(2R)-2-benzylpiperazin-1-yl]carbonyl}-5-phenyl-1H-imidazol-1-yl)cyclohexyl]carbamate]
103% | CCOC(=O)N[C@H]1CCCC[C@@H]1n1cnc(C(=O)N2CCNC[C@H]2Cc2cc(F)cc(F)c2)c1-c1ccccc1 [Example 358, Ethyl [(1S,2S)-2-(4-{[(2R)-2-(3,5-difluorobenzyl)piperazin-1-yl]carbonyl}-5-phenyl-1H-imidazol-1-yl)cyclohexyl]carbamate]
99% | CCCCC1(O)CCCCC1n1cnc(C(=O)N2CCNC[C@H]2Cc2ccccc2)c1-c1ccccc1 (stereo partly drawn) [Example 360, 2-(4-{[(2R)-2-Benzylpiperazin-1-yl]carbonyl}-5-phenyl-1H-imidazol-1-yl)-1-butylcyclohexanol hydrochloride]
100% | CCOCC1(O)CCCCC1n1cnc(C(=O)N2CCNC[C@H]2Cc2ccccc2)c1-c1ccccc1 (stereo partly drawn) [Example 361, 2-(4-{[(2R)-2-Benzylpiperazin-1-yl]carbonyl}-5-phenyl-1H-imidazol-1-yl)-1-(ethoxymethyl)cyclohexanol]
98% | O=C(c1ncn([C@@H]2CCCC[C@@]2(O)CC2CC2)c1-c1ccccc1)N1CCNC[C@H]1Cc1ccccc1 [Example 363, (1R,2R)-2-(4-{[(2R)-2-Benzylpiperazin-1-yl]carbonyl}-5-phenyl-1H-imidazol-1-yl)-1-(cyclopropylmethyl)cyclohexanol hydrochloride]
99% | COC[C@]1(O)CCCC[C@H]1n1cnc(C(=O)N2CCNC[C@H]2Cc2ccccc2)c1-c1ccccc1 [Example 367, (1S,2R)-2-(4-{[(2R)-2-Benzylpiperazin-1-yl]carbonyl}-5-phenyl-1H-imidazol-1-yl)-1-(methoxymethyl)cyclohexanol dihydrochloride]
99% | CSCCCOC[C@@]1(O)CCCC[C@@H]1n1cnc(C(=O)N2CCNC[C@H]2Cc2ccccc2)c1-c1ccccc1 [Example 378, (1R,2S)-2-(4-{[(2R)-2-Benzylpiperazin-1-yl]carbonyl}-5-phenyl-1H-imidazol-1-yl)-1-{[3-(methylthio)propoxy]methyl}cyclohexanol]
99% | COC[C@]1(O)CCCC[C@H]1n1cnc(C(=O)N2CCNC[C@H]2Cc2cc(F)cc(F)c2)c1-c1ccccc1 [Example 379, (1S,2R)-2-(4-{[(2R)-2-(3,5-Difluorobenzyl)piperazin-1-yl]carbonyl}-5-phenyl-1H-imidazol-1-yl)-1-(methoxymethyl)cyclohexanol hydrochloride]
100% | COC[C@]1(O)CCCC[C@H]1n1cnc(C(=O)N2CCNC[C@H]2Cc2cccnc2)c1-c1ccccc1 [Example 380, (1S,2R)-1-(Methoxymethyl)-2-(5-phenyl-4-{[(2R)-2-(pyridin-3-ylmethyl)piperazin-1-yl]carbonyl}-1H-imidazol-1-yl)cyclohexanol dihydrochloride]
100% | COC[C@]1(O)CCCC[C@H]1n1cnc(C(=O)N2CCNC[C@H]2Cc2ccccc2)c1-c1cccc(F)c1 [Example 383, (1S,2R)-2-[4-{[(2R)-2-Benzylpiperazin-1-yl]carbonyl}-5-(3-fluorophenyl)-1H-imidazol-1-yl]-1-(methoxymethyl)cyclohexanol]
109% | COC[C@]1(O)CCCC[C@H]1n1cnc(C(=O)N2CCNC[C@H]2CCOc2ccccc2)c1-c1ccccc1 [Example 387, (1S,2R)-1-(Methoxymethyl)-2-(4-{[(2R)-2-(2-phenoxyethyl)piperazin-1-yl]carbonyl}-5-phenyl-1H-imidazol-1-yl)cyclohexanol dihydrochloride]
106% | COC[C@]1(O)CCCC[C@H]1n1cnc(C(=O)N2CCNC[C@H]2CCOc2ccccc2F)c1-c1ccccc1 [Example 389, (1S,2R)-2-[4-({(2R)-2-[2-(2-Fluorophenoxy)ethyl]piperazin-1-yl}carbonyl)-5-phenyl-1H-imidazol-1-yl]-1-(methoxymethyl)cyclohexanol]
105% | COC[C@]1(O)CCCC[C@H]1n1cnc(C(=O)N2CCNC[C@H]2CCOc2ccc(C(=O)NC3CC3)cc2)c1-c1ccccc1 [Example 390, N-Cyclopropyl-4-{2-[(2R)-1-({1-[(1R,2S)-2-hydroxy-2-(methoxymethyl)cyclohexyl]-5-phenyl-1H-imidazol-4-yl}carbonyl)piperazin-2-yl]ethoxy}benzamide]
109% | COC[C@]1(O)CCCC[C@H]1n1cnc(C(=O)N2CCNC[C@H]2CCn2ncc3ccccc32)c1-c1ccccc1 [Example 391, (1S,2R)-2-[4-({(2R)-2-[2-(1H-Indazol-1-yl)ethyl]piperazin-1-yl}carbonyl)-5-phenyl-1H-imidazol-1-yl]-1-(methoxymethyl)cyclohexanol]
